Source: patent publication US6589970B2, “6-(aryl-amido or aryl-amidomethyl)-naphthalen-2-yloxy-acidic derivatives as inhibitors of plasminogen activator inhibitor type-1 (PAI-1)” (Wyeth, priority 2001, dated 2003)
Where a name gives a salt, the structure may show the parent alone.

What was measured:
human PAI-1 = human PAI-1 (Homo sapiens, UniProt P05121); assay: Assay for Determining IC50 of Inhibition of PAI-1 (Antibody Assay); assay type: biochemical; settings: active PAI-1 bound to tPA-coated plate
Description: This assay is based upon the non-SDS dissociable interaction between tPA and active PAI-1. Assay plates are initially coated with human tPA (10 μg/ml). The test compounds are dissolved in DMSO at 10 mM, then diluted with physiologic buffer (pH 7.5) to a final concentration of 1-50 μM. The test compounds are incubated with human PAI-1 (50 ng/ml) for 15 minutes at room temperature. The tPA-coated plate is washed with a solution of 0.05% Tween 20 and 0.1% BSA, then the plate is blocked with a solution of 3% BSA. An aliquot of the test compound/PAI-1 solution is then added to the tPA-coated plate, incubated at room temperature for 1 hour, and washed. Active PAI-1 bound to the plate is assessed by adding an aliquot of a 1:1000 dilution of the 33B8 monoclonal antibody against human PAI-1, and incubating the plate at room temperature for 1 hour (Molecular Innovations, Royal Oak, Mich. The plate is again washed, and a solution of goat anti-mouse IgG-alkaline phosphatase conjugate is added at a 1:50,000 dilution in goat serum. The plate is incubated 30 minutes at room temperature, washed, and a solution of alkaline phosphatase substrate is added. The plate is incubated 45 minutes at room temperature, and color development is determined at OD405nm. The quantitation of active PAI-1 bound to tPA at varying concentrations of the test compound is used to determine the IC50. Results are analyzed using a logarithmic best-fit equation. The assay sensitivity is 5 ng/ml of human PAI-1 as determined from a standard curve ranging from 0-100 ng/ml.

[1] = target: T1, recombinant human plasminogen activator inhibitor-1 (PAI-1) (Homo sapiens, UniProt P05121); assay: Primary Screen for the PAI-1 Inhibition; assay type: biochemical; settings: for inhibition at 25 µM: 25 μM test compound, read-out: % Inhib. 25 μM; for inhibition at 100 µM: 100 μM test compound, read-out: % Inhib. 100 μM
T1 construct: purchased Molecular Innovations, Royal Oak, Mich
Description: (§1) Test compounds are dissolved in DMSO at a final concentration of 10 mM, then diluted 100× in physiologic buffer. The inhibitory assay is initiated by the addition of the test compound (1-100 μM final concentration, maximum DMSO concentration of 0.2%) in a pH 6.6 buffer containing 140 nM recombinant human plasminogen activator inhibitor-1 (PAI-1; Molecular Innovations, Royal Oak, Mich.). Following a 1 hour incubation at room temperature, 70 nM of recombinant human tissue plasminogen activator (tPA) is added, and the combination of the test compound, PAI-1 and tPA is incubated for an additional 30 minutes. Following the second incubation, Spectrozyme-tPA (American Diagnostica, Greenwich, Conn.), a chromogenic substrate for tPA, is added and absorbance read at 405 nm at 0 and 60 minutes. Relative PAI-1 inhibition is equal to the residual tPA activity in the presence of the test compound and PAI-1. Control treatments include the complete inhibition of tPA by PAI-1 at the molar ratio employed (2:1), and the absence of any effect of the test compound on tPA alone.

[2] = target: T1, recombinant human plasminogen activator inhibitor-1 (PAI-1); assay: Modification of the Primary Screen for the PAI-1 Inhibition (IC50); assay type: biochemical
Description: as §1

human PAI-1, sequence (P05121 24-402): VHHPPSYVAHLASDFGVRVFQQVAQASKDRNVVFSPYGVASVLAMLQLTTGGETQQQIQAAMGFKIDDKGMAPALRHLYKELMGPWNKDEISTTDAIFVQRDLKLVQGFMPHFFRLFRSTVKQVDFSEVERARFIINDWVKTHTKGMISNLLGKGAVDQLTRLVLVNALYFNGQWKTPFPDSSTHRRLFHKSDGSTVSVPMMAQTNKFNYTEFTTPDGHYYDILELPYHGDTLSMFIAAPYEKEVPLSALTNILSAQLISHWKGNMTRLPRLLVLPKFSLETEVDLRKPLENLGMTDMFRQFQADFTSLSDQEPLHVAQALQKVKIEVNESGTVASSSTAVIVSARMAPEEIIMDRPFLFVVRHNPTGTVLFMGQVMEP
T1 sequence (P05121 24-402): as above

SMILES | IC50 (human PAI-1) [µM] | inhibition at 25 µM [1] [%] | inhibition at 100 µM [1] [%] | melting point [°C] | IC50 [2] [µM]
CN(Cc1ccc2c(Br)c(OCc3nnn[nH]3)ccc2c1)C(=O)c1cn(C)c2ccccc12 [Example 37, 1-Methyl-1H-indole-3-carboxylic acid [5-bromo-6-(1H-tetrazol-5-ylmethoxy)-naphthalen-2-ylmethyl]-methyl-amide] | 20.6 | 52 | 96 | 227 to 228 | –
CCCc1c(C(=O)N(C)Cc2ccc3c(Br)c(OCc4nnn[nH]4)ccc3c2)cnn1-c1ccccc1 [Example 33, 1-Phenyl-5-propyl-1H-pyrazole-4-carboxylic acid [5-bromo-6-(1H-tetrazol-5-ylmethoxy)-naphthalen-2-ylmethyl]-methyl-amide] | 31.1 | 59 | 94 | 75 to 85 | –
CCCCc1oc2ccccc2c1C(=O)NCc1ccc2cc(OCc3nnn[nH]3)ccc2c1 [Example 8, 2-Butyl-benzofuran-3-carboxylic acid [6-(1H-tetrazol-5-ylmethoxy)-naphthalen-2-ylmethyl]-amide sodium salt] | – | 13 | 71 | – | 22.9
Cc1oc2ccccc2c1C(=O)N(Cc1ccccc1)Cc1ccc2c(Br)c(OCc3nnn[nH]3)ccc2c1 [Example 49, 2-Methyl-benzofuran-3-carboxylic acid benzyl-[5-bromo-6-(1H-tetrazol-5-ylmethoxy)-naphthalen-2-ylmethyl]-amide] | 6.92 | 54 | 72 | – | –
CCCCc1oc2ccccc2c1C(=O)Nc1ccc2c(Br)c(OCC(=O)O)ccc2c1 [Example 6, {1-Bromo-6-[(2-butyl-benzofuran-3-carbonyl)-amino]-naphthalen-2-yloxy}-acetic acid sodium salt] | – | 43 | 67 | – | 18.3
CCc1oc2ccccc2c1C(=O)N(C)Cc1ccc2c(Br)c(OCc3nnn[nH]3)ccc2c1 [Example 32, 2-Ethyl-benzofuran-3-carboxylic acid [5-bromo-6-(1H-tetrazol-5-ylmethoxy)-naphthalen-2-ylmethyl]-methyl-amide] | 25.9 | 1 | 70 | – | –
Cc1oc2ccccc2c1C(=O)NCc1ccc2c(Br)c(OCc3nnn[nH]3)ccc2c1 [Example 20, 2-Methyl-benzofuran-3-carboxylic acid [5-bromo-6-(1H-tetrazol-5-ylmethoxy)-naphthalen-2-ylmethyl]-amide] | 15.8 | 26 | 58 | 242 to 244 | –
CN(Cc1ccc2c(Br)c(OC(Cc3ccccc3)C(=O)O)ccc2c1)C(=O)c1ccc(Oc2cc(Cl)cc(Cl)c2)o1 (stereo not shown) [Example 64, 2-[1-Bromo-6-({[5-(3,5-dichloro-phenoxy)-furan-2-carbonyl]-methyl-amino}-methyl)-naphthalen-2-yloxy]-3-phenyl-propionic acid] | 13.6 | 40 | 60 | – | –
CN(Cc1ccc2c(Br)c(OC(Cc3ccccc3)C(=O)O)ccc2c1)C(=O)c1cc(C(C)(C)C)cc(C(C)(C)C)c1 (stereo not shown) [Example 65, 2-(1-Bromo-6-{[(3,5-di-tert-butyl-benzoyl)-methyl-amino]-methyl}-naphthalen-2-yloxy)-3-phenyl-propionic acid] | 14.6 | 46 | 88 | – | –
CCCCc1oc2ccccc2c1C(=O)NCc1ccc2c(-c3ccc(Cl)cc3)c(OC(Cc3ccccc3)C(=O)O)ccc2c1 (stereo not shown) [Example 29, 2-[6-{[(2-Butyl-benzofuran-3-carbonyl)-amino]-methyl}-1-(4-chloro-phenyl)-naphthalen-2-yloxy]-3-phenyl-propionic acid] | – | 23 | 100 | – | 8.5
Cc1oc(-c2ccc(Cl)cc2)cc1C(=O)NCc1ccc2cc(OCC(=O)O)ccc2c1 [Example 10, [6-({[5-(4-Chloro-phenyl)-2-methyl-furan-3-carbonyl]-amino}-methyl)-naphthalen-2-yloxy]-acetic acid] | – | 7 | 53 | – | 25.2
O=C(NCc1ccc2c(Br)c(OC(Cc3ccccc3)C(=O)O)ccc2c1)c1cccc(Oc2ccccc2)c1 (stereo not shown) [Example 57, 2-{1-Bromo-6-[(3-phenoxy-benzoylamino)-methyl]-naphthalen-2-yloxy}-3-phenyl-propionic acid] | – | 24 | 98 | – | 5.5
O=C(O)COc1ccc2cc(CNC(=O)c3cnn(-c4ccc(Cl)cc4)c3C(F)(F)F)ccc2c1 [Example 14, [6-({[1-(4-Chloro-phenyl)-5-trifluoromethyl-1H-pyrazole-4-carbonyl]-amino}-methyl)-naphthalen-2-yloxy]-acetic acid] | 51 | 1 | 70 | – | –
CCc1oc2ccccc2c1C(=O)N(Cc1ccccc1)Cc1ccc2c(Br)c(OCc3nnn[nH]3)ccc2c1 [Example 50, 2-Ethyl-benzofuran-3-carboxylic acid benzyl-[5-bromo-6-(1H-tetrazol-5ylmethoxy)-naphthalen-2-ylmethyl)-amide] | 35.7 | 56 | 61 | – | –
O=C(O)C(Cc1ccccc1)Oc1ccc2cc(CN(Cc3ccccc3)C(=O)c3ccc(Oc4cc(Cl)cc(Cl)c4)o3)ccc2c1Br (stereo not shown) [Example 67, 2-[6-({Benzyl-[5-(3,5-dichloro-phenoxy)-furan-2-carbonyl]-amino}-methyl)-1-bromo-naphthalen-2-yloxy]-3-phenyl-propionic acid] | 13.5 | 59 | 66 | – | –
CCCCc1oc2ccccc2c1C(=O)NCc1ccc2c(-c3ccc(OC)cc3)c(OC(Cc3ccccc3)C(=O)[O-])ccc2c1.[Na+] (stereo not shown) [Example 30, Sodium; 2-[6-{[(2-Butyl-benzofuran-3-carbonyl)-amino]-methyl}-1-(4-methoxy-phenyl)-naphthalen-2-yloxy]-3-phenyl-propionate] | 44.9 | 38 | 91 | 138 to 142 | –
CCCCc1oc2ccccc2c1C(=O)NCc1ccc2c(Br)c(OC(Cc3ccccc3)C(=O)O)ccc2c1 (stereo not shown) [Example 18, 2-(1-Bromo-6-{[(2-butyl-benzofuran-3-carbonyl)-amino]-methyl}-naphthalen-2-yloxy)-3-phenyl-propionic acid] | 15.7 | 53 | 92 | – | –
CCCCN(Cc1ccc2c(Br)c(OCc3nnn[nH]3)ccc2c1)C(=O)c1c(C)oc2ccccc12 [Example 52, 2-Methyl-benzofuran-3-carboxylic acid [5-bromo-6-(1H-tetrazol-5-ylmethoxy)-naphthalen-2-ylmethyl]-butyl-amide] | 20.8 | 44 | 81 | 204 to 206 | –
CCc1oc2ccccc2c1C(=O)NCc1ccc2c(Br)c(OCc3nnn[nH]3)ccc2c1 [Example 21, 2-Ethyl-benzofuran-3-carboxylic acid [5-bromo-6-(1H-tetrazol-5-yl methoxy)-naphthalen-2-ylmethyl]-amide] | 5.08 | 36 | 54 | 235 to 238 | –
CCCCc1oc2ccccc2c1C(=O)N(Cc1ccccc1)Cc1ccc2c(Br)c(OC(Cc3ccccc3)C(=O)O)ccc2c1 (stereo not shown) [Example 68, 2-(6-{[Benzyl-(2-butyl-benzofuran-3-carbonyl)-amino]-methyl}-1-bromo-naphthalen-2-yloxy)-3-phenyl-propionic acid] | 20 | 54 | 84 | – | –
CN(Cc1ccc2c(Br)c(OCc3nnn[nH]3)ccc2c1)C(=O)c1cn(Cc2ccccc2)c2ccccc12 [Example 34, 1-Benzyl-1H-indole-3-carboxylic acid [5-bromo-6-(1H-tetrazol-5-ylmethoxy)-naphthalen-2-ylmethyl]-methyl-amide] | 19.3 | 34 | 81 | 197 to 198 | –
